# B1: IL-12: Proinflammatory Th1 cytokine interleukin-12 (protein, UniProt P29459 23-219; P29460 23-328, looked up)
# Interleukin-12 subunit alpha: RNLPVATPDPGMFPCLHHSQNLLRAVSNMLQKARQTLEFYPCTSEEIDHEDITKDKTSTVEACLPLELTKNESCLNSRETSFITNGSCLASRKTSFMMALCLSSIYEDLKMYQVEFKTMNAKLLMDPKRQIFLDQNMLAVIDELMQALNFNSETVPQKSSLEEPDFYKTKIKLCILLHAFRIRAVTIDRVMSYLNAS
# Interleukin-12 subunit beta: IWELKKDVYVVELDWYPDAPGEMVVLTCDTPEEDGITWTLDQSSEVLGSGKTLTIQVKEFGDAGQYTCHKGGEVLSHSLLLLHKKEDGIWSTDILKDQKEPKNKTFLRCEAKNYSGRFTCWWLTTISTDLTFSVKSSRGSSDPQGVTCGAATLSAERVRGDNKEYEYSVECQEDSACPAAEESLPIEVMVDAVHKLKYENYTSSFFIRDIIKPDPPKNLQLKPLKNSRQVEVSWEYPDTWSTPHSYFSLTFCVQVQGKSKREKKDRVFTDKTSATVICRKNASISVRAQDRYYSSSWSEWASVPCS
# Tests used:
# [1] = cited from earlier work
# [2] = mouse, in vivo; cited from earlier work
# glioblastoma cells = settings: 2 h after injection; cited from earlier work
# DNA = settings: cited from earlier work
# cancer cells = settings: cited from earlier work
# 4T1 tumor = experiment: 19F MRI of 4T1 tumor infiltration by myeloid cells (V-Sense); format: in vivo; settings: 48 h post intratumoral injection, compared to PBS
# Experimental: FIG. 17. MR imaging of 4T1 tumor infiltration by myeloid cells. The perfluorocarbon emulsion V-Sense was injected intravascularly and carrier macrophages were imaged by 19F MRI 48 h post control or IL-12 intraturrioral injection.
# V-sense is a commercial ^19F-perfluorocarbon emulsion used to track macrophage infiltration into inflammatory tissues. Ahrens et al. (2011) successfully quantified V-sense in inflamed tissues of the central nervous system in an […] model of allergic encephalomyelitis, which they correlated with immunohistochemistry to confirm co-localization of V-sense emulsion droplets and macrophages. Hitchens et al. (2011) detected V-sense labeled macrophages in a model of cardiac allograft rejection. In FIG. 12, the ^19F contrast in tumors is shown based on infiltration of V-sense containing macrophages. In vitro fluorescent imaging confirmed V-sense (red) uptake by RAW macrophages (FIG. 15). […] The color spectrum indicates the concentration of V-sense, which is analogous to phagocytic myeloid cell density.
# tumor immunocytes = tumor immunocytes by flow cytometry after IL-12; format: in vivo; settings: 24 h after treatment
# Source text: FIGS. 21A-B. Tumor immunocytes. A) Flow cytometry dot blots showing gating for myeloid and T cell populations. B) Percent immunocytes in control vs IL-12 treated tumors.
# Tumor phenotyping. Flow cytometry and immunohistochemistry are used to characterize PD-L1 expression and the presence of effector and regulatory T cells, myeloid and DC, vascularity and stromal cells in tumors and lymphatic tissue. Immunosuppressive regulators in the tumor include T regulatory (Treg) and […] (MDSC). Tregs (CD4^+/FoxP3^+) and MDSC [CD11b^+/Gr-1(Ly6-CIG)^+] suppress effective antitumor immune responses. CD4^+ and CD8^+ T cells are the primary adaptive immune cell mediators within the tumor and the proportion of T cell subsets and DC present in the tumor plays a critical role in tumor rejection. […] Single cell suspensions are prepared from tumors and spleen. After Fc receptor blockade with anti-CD16/CD32 antibodies in 1% mouse serum/1 mM EDTA, cells are permeabilized for intracellular staining or stained directly with antibodies identifying discrete immune cell populations, as described below. […] Specificity of binding to naïve or memory/effector cells is evaluated using fluorescent antibodies that recognize CD45RA, CCR7, and FOXP3. […] Apoptotic tumor cells are detected using DeadEnd Colorimetric TUNEL System, and proliferating cells will be identified using Ki-67. […]
molecule,measurement,setting,value
"COc1cccc2c1C(=O)c1c(O)c3c(c(O)c1C2=O)C[C@@](O)(C(=O)CO)C[C@@H]3O[C@H]1C[C@H](N)[C@H](O)[C@H](C)O1 [DOX, doxorubicin]",IC50,[1],0.08 µg/mL
same,MTD,[2],6 mg/kg
"O=c1[nH]c(=O)n([C@@H]2O[C@H](CO)[C@@H](O)[C@@H]2F)cc1[124I] [^124I-FIAU, ^124I-2′-fluoro-2′-deoxy-5-iodo-1-beta-D-arabinofurariosyluracil]",increase in reporter expression,glioblastoma cells,28 fold
"N.N.[Cl][Pt][Cl] [cisplatin, cis-diamminedichloroplatinum (II)]",DNA adduct formation relative to oxaliplatin,DNA,10 times
same,number of ICD hallmarks stimulated,cancer cells,2
B1,frequency of phagocytic cells within the tumor periphery,4T1 tumor,increased the frequency of phagocytic cells
same,CD4+ and CD8+ T cells in the tumor,tumor immunocytes,increases CD4^+ and CD8^+ T cells
same,MDSC in the tumor,tumor immunocytes,decreases MDSC
